Laboratory results published in patent US20220387375A1, “TRPV1 ACTIVATION-MODULATING COMPLEX MIXTURES OF CANNABINOIDS AND/OR TERPENES” (GBS Global Biopharma, Inc., priority 2018, published 2022).

Key:
Assay type in all cases: cell-based
TRPA1 = target: T1, TRPA1 (Homo sapiens, UniProt O75762); test: Bulk calcium assay (Fluo-4) in HEK cells overexpressing TRPA1
T1 construct: host or cells: HEK TRex293
Experimental: (§1) HEK TRexTRPV1 were cultured in DMEM, 10% Fetal Bovine Serum, 2 mM Lglutamine, 10 μg/ml Blasticidin (Calbiochem, San Diego Calif.), 400 μg/ml Zeocin (InvivoGen, San Diego Calif.), where indicated transgene expression was induced using 1 μg/ml Tetracycline for 16-24 hrs. Unless otherwise indicated, basal expression of TRPV1 without induction was sufficient for these studies, and comparisons were made to untransfected HEK where needed. HEKTRex293 over-expressing human TRPV2, human TRPA1 and human TRPM8 were obtained from SB Drug Discovery (Glasgow, Scotland) and cultured as described above. The cannabinoids and terpenes were assayed in HEK cells that have been transfected with the TRPV1 ion channel protein. These cells are called HEK293-V1 cells.
(§2) Cells were washed and incubated with 0.2 micromolar Fluo-4 for 30 minutes at 37° C. in a standard modified Ringer's solution of the following composition (in mM): NaCl 145, KCl 2.8, CsCl 10, CaCl2 10, MgCl2 2, glucose 10, Hepes·NaOH 10, pH 7.4, 330 mOsm. Cells were transferred to 96-well plates at 50,000 cells/well and stimulated as indicated. Calcium signals were acquired using a Flexstation 3 (Molecular Devices, Sunnydale, USA). Data was analyzed using SoftMax® Pro 5 (Molecular Devices). Where indicated, nomically calcium-free external conditions were achieved by the preparation of 0 mM CaCl2 Ringer solution containing 1 mM EGTA.
(§3) Calcium responses mediated by TRPA1, TRPM8, TRPV2, and TRPV1 were tested by calcium assay in the cell culture system. Cells were washed and incubated with 0.2 μM fluo-4 acetoxymethyl ester (“Fluo-4”) for 30 minutes at 37° C. in a standard modified Ringer's solution of the following composition (in mM): NaCl 145, KCl 2.8, CsCl 10, CaCl2 10, MgCl2 2, glucose 10, Hepes·NaOH 10, pH 7.4, 330 mOsm. Cells were transferred to 96-well plates at 50,000 cells/well and stimulated with 10 μM myrcene diluted in DMSO. Vehicle (DMSO) was used as a negative control. Vehicle traces were subtracted from the myrcene traces for each cell line.
(§4) The potential for different cannabinoids to target specific TRP channels, or to co-target more than one channel type, are of potential therapeutic options for the treatment and management of pain. Comparison of the impacts of a variety of cannabinoid on overexpression systems for TRPV2, TRPM8, and TRPA1 were performed in a side-by-side fashion, under bulk calcium assays where the measurements with each trace representing averaged triplicates of 100,000 cells per sample. As shown in FIGS. 41-43 and summarized in Table 3, there are clear differences in responsiveness between cannabinoids at a single channel type than between channel types to a given cannabinoid.

WT HEK293 = test: Bulk calcium assay in untransfected WT HEK293; conditions: 10 μM, 1 mM external Ca2+
TRPV2 = target: T2, TRPV2 (Homo sapiens, UniProt Q9Y5S1); test: Bulk calcium assay (Fluo-4) in HEK cells overexpressing TRPV2
T2 construct: host or cells: HEK TRex293
T2 sequence (Q9Y5S1 1-764): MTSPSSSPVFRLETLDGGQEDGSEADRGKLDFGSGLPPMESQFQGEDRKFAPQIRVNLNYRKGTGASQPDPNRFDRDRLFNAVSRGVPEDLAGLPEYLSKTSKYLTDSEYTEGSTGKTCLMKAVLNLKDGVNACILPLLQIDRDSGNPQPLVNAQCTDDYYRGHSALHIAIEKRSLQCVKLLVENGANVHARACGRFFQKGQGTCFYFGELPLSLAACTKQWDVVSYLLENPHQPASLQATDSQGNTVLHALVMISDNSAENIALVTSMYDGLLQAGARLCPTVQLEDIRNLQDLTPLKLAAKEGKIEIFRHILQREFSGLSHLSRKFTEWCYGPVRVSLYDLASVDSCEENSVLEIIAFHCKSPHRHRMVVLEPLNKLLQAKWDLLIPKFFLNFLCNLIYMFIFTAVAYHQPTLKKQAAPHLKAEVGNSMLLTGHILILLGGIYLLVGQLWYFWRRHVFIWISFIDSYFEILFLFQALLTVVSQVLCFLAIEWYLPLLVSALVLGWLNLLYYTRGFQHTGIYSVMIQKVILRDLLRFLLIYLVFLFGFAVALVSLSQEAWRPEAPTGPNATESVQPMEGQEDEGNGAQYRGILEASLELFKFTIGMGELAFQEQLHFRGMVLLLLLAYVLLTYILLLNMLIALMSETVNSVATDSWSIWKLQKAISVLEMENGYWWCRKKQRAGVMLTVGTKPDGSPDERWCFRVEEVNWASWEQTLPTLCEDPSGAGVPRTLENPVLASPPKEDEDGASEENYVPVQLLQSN
Experimental: as §1, §2, §3, §4

TRPM8 = target: T3, TRPM8 (Homo sapiens, UniProt Q7Z2W7); test: Bulk calcium assay (Fluo-4) in HEK cells overexpressing TRPM8
T3 construct: host or cells: HEK TRex293
T3 sequence (Q7Z2W7 whole entry): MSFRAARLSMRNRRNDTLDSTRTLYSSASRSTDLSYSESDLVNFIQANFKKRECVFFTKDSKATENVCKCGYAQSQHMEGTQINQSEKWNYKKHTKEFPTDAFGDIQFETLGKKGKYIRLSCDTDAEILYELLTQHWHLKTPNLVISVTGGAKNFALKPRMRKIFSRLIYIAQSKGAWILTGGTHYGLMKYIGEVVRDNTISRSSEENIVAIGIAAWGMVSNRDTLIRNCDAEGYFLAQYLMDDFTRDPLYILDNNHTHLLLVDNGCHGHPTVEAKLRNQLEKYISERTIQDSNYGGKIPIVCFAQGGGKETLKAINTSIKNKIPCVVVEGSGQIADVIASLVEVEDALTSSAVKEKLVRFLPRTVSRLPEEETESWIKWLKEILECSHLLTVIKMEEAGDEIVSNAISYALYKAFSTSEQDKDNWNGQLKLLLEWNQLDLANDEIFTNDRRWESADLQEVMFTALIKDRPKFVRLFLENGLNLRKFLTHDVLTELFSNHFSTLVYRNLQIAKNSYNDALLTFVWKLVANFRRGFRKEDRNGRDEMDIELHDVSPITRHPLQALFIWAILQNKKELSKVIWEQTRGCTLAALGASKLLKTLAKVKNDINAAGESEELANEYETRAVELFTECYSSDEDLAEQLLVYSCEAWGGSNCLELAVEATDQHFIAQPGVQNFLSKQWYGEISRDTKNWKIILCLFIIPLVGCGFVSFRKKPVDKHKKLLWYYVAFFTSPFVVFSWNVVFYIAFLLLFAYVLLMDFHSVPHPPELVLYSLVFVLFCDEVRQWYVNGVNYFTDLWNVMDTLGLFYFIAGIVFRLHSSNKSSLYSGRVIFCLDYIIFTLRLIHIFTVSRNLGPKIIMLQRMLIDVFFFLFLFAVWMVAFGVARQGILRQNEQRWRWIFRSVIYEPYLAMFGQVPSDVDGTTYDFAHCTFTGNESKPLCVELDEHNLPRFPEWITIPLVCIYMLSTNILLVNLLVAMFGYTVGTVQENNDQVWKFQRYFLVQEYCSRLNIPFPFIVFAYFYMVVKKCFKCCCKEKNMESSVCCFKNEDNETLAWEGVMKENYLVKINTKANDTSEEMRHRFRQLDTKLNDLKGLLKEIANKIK
Experimental: as §1, §2, §3, §4

TRPV1 = target: T4, TRPV1 (Rattus norvegicus, UniProt O35433); test: Bulk calcium assay (Fluo-4) in HEK-TRPV1 overexpressing cells; conditions: bulk calcium assay; TRPV1; mean (SD)
T4 construct: FLAG; expressed in transfected cells
T4 sequence (O35433 whole entry): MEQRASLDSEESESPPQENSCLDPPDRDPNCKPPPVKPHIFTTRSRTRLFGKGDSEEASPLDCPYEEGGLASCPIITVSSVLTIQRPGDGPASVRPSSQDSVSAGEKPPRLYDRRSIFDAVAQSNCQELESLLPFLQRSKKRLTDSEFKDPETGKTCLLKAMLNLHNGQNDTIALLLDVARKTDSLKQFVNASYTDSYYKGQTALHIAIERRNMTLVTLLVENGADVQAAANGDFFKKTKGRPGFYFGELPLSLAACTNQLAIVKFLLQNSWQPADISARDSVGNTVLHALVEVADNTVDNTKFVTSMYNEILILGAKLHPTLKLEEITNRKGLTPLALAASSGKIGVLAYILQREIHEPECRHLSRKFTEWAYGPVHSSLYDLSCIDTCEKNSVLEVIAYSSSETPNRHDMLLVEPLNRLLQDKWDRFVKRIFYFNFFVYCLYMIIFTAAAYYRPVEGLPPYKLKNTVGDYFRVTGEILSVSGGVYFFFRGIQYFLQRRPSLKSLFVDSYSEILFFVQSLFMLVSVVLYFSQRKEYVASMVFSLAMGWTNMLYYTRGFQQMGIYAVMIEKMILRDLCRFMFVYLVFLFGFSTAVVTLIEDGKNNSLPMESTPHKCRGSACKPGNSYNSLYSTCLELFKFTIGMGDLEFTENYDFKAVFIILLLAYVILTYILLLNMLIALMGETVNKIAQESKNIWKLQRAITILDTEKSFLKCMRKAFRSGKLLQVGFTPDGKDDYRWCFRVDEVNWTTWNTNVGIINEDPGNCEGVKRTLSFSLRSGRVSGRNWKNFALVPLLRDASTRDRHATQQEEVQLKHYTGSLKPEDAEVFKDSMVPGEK
Experimental: as §2
The cell culture system described in U.S. patent application Ser. No. 15/986,316 was used to test the TRPV1-mediated calcium response to various terpenes. The HEK293 cell line was stably transfected with the pcDNA6TR (Invitrogen, CA) plasmid (encoding the tetracycline-sensitive TREx repressor protein), and was maintained in DMEM+10% fetal bovine serum (inactivated at 55° C. for 1 h)+2 mM glutamine in humidified 5% CO2 atmosphere at 37° C. Selection pressure on the TRex 293 cells was maintained by continuous culture in 10 μg/ml Blasticidin (Sigma, St Louis, Mo.).
For production of TRex HEK293 cells with inducible expression of TRPV1, parental cells were electroporated with the rat TRPV1 cDNA in the pcDNA4TO vector and clonal cell lines were selected by limiting dilution in the presence of 400 μg/ml zeocin (Invitrogen, CA). TRPV1 expression was induced using 1 μg/ml tetracycline for 16 h at 37° C. Stable lines were screened for inducible protein expression using anti-FLAG Western blot, and inducible expression was confirmed.
Calcium responses mediated by TRPV1 were tested by calcium assay in the cell culture system. Cells were washed and incubated with 0.2 μM fluo-4 acetoxymethyl ester (“Fluo-4”) for 30 minutes at 37° C. in a standard modified Ringer's solution of the following composition (in mM): NaCl 145, KCl2.8, CsCl10, CaCl2 10, MgCl2 2, glucose 10, Hepes·NaOH 10, pH 7.4, 330 mOsm. Cells were transferred to 96-well plates at 50,000 cells/well and stimulated as indicated. The terpenes used were alpha-bisabool, alpha-pinene, myrcene, camphene, linalool, ocimene, humulene, beta-caryophyllene, beta-pinene, limonene, and nerolidol. The terpenes were diluted in DMSO and added to the wells to a final concentration of 10 μM. Vehicle (DMSO) alone was run as a negative control and subtracted from the terpene traces. Calcium signals were acquired using a Flexstation 3 (Molecular Devices, Sunnydale, USA). Data was analyzed using SoftMax® Pro 5 (Molecular Devices).
as §3
As shown in FIGS. 16A-H, a variety of cannabinoids were capable of initiating Ca^2+ fluxes in HEK-TRPV1 overexpressing cells, except for cannabigerol and cannabinol. Comparative responses to a single dose (10 μM concentration) of a variety of cannabinoids were made in the presence of 1 mM external Ca^2+, which are population-based, or bulk Ca^2+, measurements with each trace representing averaged triplicates of 100,000 cells per sample. […] For each of the cannabinoid compounds, dose responses at the population level were performed. […] The lower limit of detectable calcium responses in this system varied from 10-100 nM (CBDV, CBGA) to 1-10 μM.

T1 sequence (O75762 whole entry): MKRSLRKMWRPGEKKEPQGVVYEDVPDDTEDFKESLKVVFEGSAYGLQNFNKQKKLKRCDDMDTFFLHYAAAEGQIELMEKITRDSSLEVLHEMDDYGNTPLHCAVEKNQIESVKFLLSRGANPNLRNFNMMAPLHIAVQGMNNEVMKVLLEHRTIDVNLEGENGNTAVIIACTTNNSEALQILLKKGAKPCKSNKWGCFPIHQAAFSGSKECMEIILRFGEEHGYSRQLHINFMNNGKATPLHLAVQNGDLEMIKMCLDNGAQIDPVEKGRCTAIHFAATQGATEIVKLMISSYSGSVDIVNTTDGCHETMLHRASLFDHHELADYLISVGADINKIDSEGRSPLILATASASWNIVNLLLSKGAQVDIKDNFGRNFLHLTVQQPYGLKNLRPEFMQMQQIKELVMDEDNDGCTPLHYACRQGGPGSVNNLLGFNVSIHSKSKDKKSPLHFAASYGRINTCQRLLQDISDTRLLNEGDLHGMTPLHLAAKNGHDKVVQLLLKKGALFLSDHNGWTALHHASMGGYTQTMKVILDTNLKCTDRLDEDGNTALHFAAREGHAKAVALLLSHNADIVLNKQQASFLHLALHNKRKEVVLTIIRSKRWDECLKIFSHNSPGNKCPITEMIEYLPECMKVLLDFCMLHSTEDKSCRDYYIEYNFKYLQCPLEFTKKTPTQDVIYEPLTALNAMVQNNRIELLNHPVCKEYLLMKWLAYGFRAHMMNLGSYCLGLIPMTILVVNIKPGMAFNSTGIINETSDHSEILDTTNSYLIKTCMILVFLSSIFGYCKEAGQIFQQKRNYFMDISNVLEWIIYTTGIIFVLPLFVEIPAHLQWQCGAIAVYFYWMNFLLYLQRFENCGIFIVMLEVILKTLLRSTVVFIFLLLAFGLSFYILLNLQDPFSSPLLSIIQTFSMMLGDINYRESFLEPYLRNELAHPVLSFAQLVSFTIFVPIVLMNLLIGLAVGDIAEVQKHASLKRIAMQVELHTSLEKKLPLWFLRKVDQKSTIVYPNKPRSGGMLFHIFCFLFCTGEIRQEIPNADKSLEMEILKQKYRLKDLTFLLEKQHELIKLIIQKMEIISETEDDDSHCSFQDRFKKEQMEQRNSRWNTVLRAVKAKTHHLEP

CCCCCc1cc(O)c(C/C=C(\C)CCC=C(C)C)c(O)c1C(=O)O [CBGA, Cannabigerolic Acid]
mean maximal Ca^2+ signal RFU achieved 0-180 s (SD), TRPA1 (TRPA1): 3.65 (1.11) RFU
calcium response of WT HEK293 (WT HEK293): responding slightly
mean maximal Ca^2+ signal RFU achieved 0-180 s (SD), TRPV1 (TRPV2): 0.78 (0.02) RFU
mean maximal Ca^2+ signal RFU achieved 0-180 s (SD), TRM8 (TRPM8): 0.3 (0.01) RFU
mean maximal Ca^2+ signal RFU achieved 0-180 s (SD), TRPV1 (TRPV1): 13.77 (0.31) RFU

CCCCCc1cc(O)c2c(c1)OC(C)(CCC=C(C)C)C=C2 (stereo not shown) [CBC, Cannabichromene]
mean maximal Ca^2+ signal RFU achieved 0-180 s (SD), TRPA1 (TRPA1): 15.13 (3.35) RFU
mean maximal Ca^2+ signal RFU achieved 0-180 s (SD), TRPV1 (TRPV2): 21.66 (1.89) RFU
mean maximal Ca^2+ signal RFU achieved 0-180 s (SD), TRM8 (TRPM8): 0.97 (0.03) RFU
mean maximal Ca^2+ signal RFU achieved 0-180 s (SD), TRPV1 (TRPV1): 3.23 (0.12) RFU

C=C(C)[C@@H]1CCC(C)=C[C@H]1c1c(O)cc(CCCCC)c(C(=O)O)c1O [CBDA, Cannabidiolic Acid]
mean maximal Ca^2+ signal RFU achieved 0-180 s (SD), TRPA1 (TRPA1): 10.09 (3.08) RFU
mean maximal Ca^2+ signal RFU achieved 0-180 s (SD), TRPV1 (TRPV2): 3.69 (1.2) RFU
mean maximal Ca^2+ signal RFU achieved 0-180 s (SD), TRM8 (TRPM8): 1.92 (0.04) RFU
mean maximal Ca^2+ signal RFU achieved 0-180 s (SD), TRPV1 (TRPV1): 4.62 (0.66) RFU
